Results as given in patent publication US12031897B2, “Target-locking single-molecule nanoscopy” (Memorial Sloan Kettering Cancer Center, priority 2019, dated 2024).

Experiments:
[1] = target: T1, Brd4 foci at the Nanog locus (Mus musculus, UniProt Q9ESU6); experiment: Brd4 cluster signal at Nanog vs. [JQ1]; assay type: cell-based; details: mESCs
T1 construct: integrating a SNAP-tag at the N-terminus of the endogenous Brd4; endogenous in cells; host or cells: mouse ESCs NMG, NMG SNAP-Brd4 clone 7 (CRISPR knock-in, homozygous)
Experimental: It is discovered that Pol II, Sox2 and Brd4 form foci at Nanog transcription sites, with nanoscale organization akin to Pou5f1—colocalization of Pol II with 3′UTR-tagged nascent RNA and resolvable separation of enhancer-associated regulatory factors (FIGS. 9A-9D).
For real-time confocal and STED imaging, example implementations may program the wave generator to scan 2 μm×2 μm or 1 μm×1 μm xy areas in 0.8 sec or 0.2 sec respectively. 3D scanning was performed (via, e.g., detection system 150) by acquiring 5 xy scans while moving the stage by 0.5 μm in z between scans. TTL pulses corresponding to single-photon events from the APDs, together with the trigger pulses from the wave generator were detected using a field-programmable gate array (FPGA) data acquisition system (National Instruments, PCIe-7852R).
Before imaging, cells were seeded onto 8-chamber coverglass (LabTek, 155411) coated with 5 μg/ml laminin (BioLamina LN511), in −2i media (OMG) or +2i media (NMG) and appropriate drugs. For SiR staining, cells were labeled with media containing 0.3 μM SiR-BG for 10 mins, at 37° C., followed by three washes with new media.
To generate OMG or NMG SNAP-Brd4 targeted cells, OMG-1 or NMG mESCs (1×106) were transfected with 10 μg SNAP-Brd4 donor vector and 0.6 μg espCas9-gRNA-Brd4 vector. […]

[2] = test system: SiR-Rpb1 (Pol II) in the nucleus of U2-OS cells; experiment: SiR-Rpb1 FRAP in the nucleus of clone 5 cells; assay type: cell-based, human; details: after ~30-40 minutes incubation with 10 μM Flavopiridol
From the text: Live cell imaging experiments (SiR-Rpb1 FRAP). For SiR-Rpb1 FRAP experiments, time lapse images were acquired at 1 fps at a focal point adjusted at the mid-plane of the nucleus. To bleach molecules at a spot in the nucleus, an iris was used to block all but a small circle in the center of the excitation beam, the dynamic diffuser was removed and ˜[…] 642 nm laser power was applied for ˜10 seconds. Then, the 642 nm laser power was reduced to ˜7 W/μm2, the diffuser was put back in the optical path (resulting in additional drop in the power reaching the sample), the iris was removed and time-lapse acquisition continued. The recovery trace of SiR-Rpb1 at the bleached spot was corrected for photobleaching using the intensity of nearby (non-photobleached) regions in the nucleus.
Quantification of signal (S) and immobile background (Bi) at the transcription site. […] This behavior reflects gradual photobleaching of Pol II molecules residing within the excitation volume during the measurement and a constant background of molecules rapidly diffusing in and out. […] The Bi/Bd ratio is also consistent with: (i) Fluorescence Recovery After Photobleaching (FRAP) measurements at random nuclear locations (FIGS. 11K, 11L), showing that ˜40% of total Pol II is immobile (recovery time ˜20 min) and likely transcriptionally engaged; (ii) previous GFP-Pol II FRAP results in a related system.

| Structure (SMILES) | Hill curve n, relative Brd4 signal at Nanog vs. [JQ1] [1] | slow-recovering immobile Pol II population (FRAP) ([2]; ~40% in absence of Flavopiridol) | fast FRAP recovery of SiR-Rpb1 ([2]; ~60% in absence) |
| --- | --- | --- | --- |
| Cc1sc2c(c1C)C(c1ccc(Cl)cc1)=N[C@@H](CC(=O)OC(C)(C)C)c1nnc(C)n1-2 [JQ1] | 1.0 |  |  |
| CN1CC[C@H](c2c(O)cc(O)c3c(=O)cc(-c4ccccc4Cl)oc23)[C@H](O)C1 [flavopiridol] |  | 10-15% | 85-90% |
